We go through three compounds from publication PMC10287183 (Antiviral Research, 2023).

Where two headings read alike, the source gives them in different places.

A short description of one data set: in vitro. The settings on record: human.
The subject of a further data set is SARS-CoV2 D614G. Format: cell-based, SARS-CoV-2. As to conditions: for EC90: read-out: EC90 (mean ± SD).
Another data set has as its system SARS-CoV-2 D614G. Format: cell-based.

As a reminder, the EC90 is the point of the concentration-response curve where the effect stands at 90%.

On to `CCN(CCO)CCCC(C)Nc1ccnc2cc(Cl)ccc12` (centres unmarked) [Hydroxychloroquin, Hydroxychloroquine], for which the CC50 in “in vitro” was > 100 µM. For the same compound, in the data set with SARS-CoV2 D614G, the “Highest % of Virus Inhibition” value is reported as 98% and the EC90 was 18.9 ± 2.3 µM.
Regarding `O=[N+]([O-])c1ccc(O)c2ncccc12` [Nitroxoline, nitroxoline], in the data set on SARS-CoV-2 D614G, the virus entry step result is “inhibited this step similarly to HCQ”. Besides, the CC50 in the data set “in vitro” is > 100 µM. For the same compound, the EC90 with SARS-CoV2 D614G was determined as 9.9 ± 8 µM.
As to CLIK-148 [CLIK 148], in the data set with Huh7-hACE2, the CC50 is > 100 µM. Also, in the data set on SARS-CoV2 D614G ([…], highest concentration tested 100 μM (CLIK-148 60 μM)), the “Highest % of Virus Inhibition” value was determined as 64%.
